Results: patent US11066414B2, “Cot modulators and methods of use thereof” (Gilead Sciences, Inc., priority 2015, dated 2021)
Like-named read-outs stand apart in the source and are kept apart here.

Legend:
TNFα = assay: Cot Monocyte TNFα Cell Based Assay
Human Cot = Human Cot (Homo sapiens (Human), UniProt P41279); assay: High Throughput Cot Biochemical Assay
[1] = Homo sapiens, Monocyte, read-out: EC50 TNF, LPS-stimulated human monocytes, TNFα
[2] = IC50 HTRF, Cot HTRF (TR-FRET) biochemical assay
[3] = Homo sapiens, Monocyte, read-out: EC50 TNF, LPS-stimulated human monocytes, TNFα TR-FRET
[4] = IC50 HTRF, Cot HTRF (TR-FRET KinEASE) biochemical assay, 400 μM ATP

Chain of Human Cot (P41279 30-397): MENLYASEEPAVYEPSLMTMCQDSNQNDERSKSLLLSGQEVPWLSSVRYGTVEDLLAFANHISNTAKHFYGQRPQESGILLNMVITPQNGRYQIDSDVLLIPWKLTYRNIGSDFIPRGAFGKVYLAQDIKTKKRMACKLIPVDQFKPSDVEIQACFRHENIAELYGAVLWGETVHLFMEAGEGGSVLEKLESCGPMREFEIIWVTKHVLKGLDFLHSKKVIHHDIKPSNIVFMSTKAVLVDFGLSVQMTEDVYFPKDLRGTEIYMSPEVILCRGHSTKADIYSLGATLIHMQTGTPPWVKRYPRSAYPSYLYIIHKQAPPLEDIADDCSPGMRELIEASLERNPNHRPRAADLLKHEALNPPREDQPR

Compound	EC50 (TNFα; [1]) [nM]	IC50 (Human Cot; [2]) [nM]	other results
Cc1nc(F)ccc1[C@H](Nc1cc(C#N)c2ncc(C#N)c(NCC(C)(C)C)c2c1)c1cn(C(C)(C)CF)nn1 [Example 625, (S)-6-(((1-{1-fluoro-2-methylpropan-2-yl)-1H-1,2,3-triazol-4-yl)(6-fluoro-2-methylpyridin-3-yl)methyl)amino)-4-(neopentylamino)quinoline-3,8-dicarbonitrile]	26	2	
Cc1nc(F)ccc1[C@H](Nc1cc(Cl)c2ncc(C#N)c(NCC(C)(C)C)c2c1)c1cn(CC2(C)CC2)nn1 [Example 764, (S)-8-chloro-6-(((6-fluoro-2-methylpyridin-3-yl)(1-((1-methylcyclopropyl)-methyl)-1H-1,2,3-triazol-4-yl)methyl)amino)-4-(neopentylamino)quinoline-3-carbonitrile]	46	4	
CC(C)(C)CNc1c(C#N)cnc2c(S(C)(=O)=O)cc(N[C@H](c3cn(C4(C(F)(F)F)CC4)nn3)c3cccc4ncsc34)cc12 [Example 442, (S)-6-((benzo[d]thiazol-7-yl(1-(1-(trifluoromethyl)cyclopropyl)-1H-1,2,3-triazol-4-yl)methyl)amino)-8-(methyl-sulfonyl)-4-(neopentylamino)quinoline-3-carbonitrile]	2690	56	
[2H][C@](Nc1cc(OC)c2ncc(C#N)c(N[C@H](CC)c3ccccc3)c2c1)(c1ccc(F)nc1)c1cn(C2CC2)nn1 [Example 97, 6-(((S)-(1-cyclopropyl-1H-1,2,3-triazol-4-yl)(6-fluoropyridin-3-yl)methyl-d)amino)-8-methoxy-4-(((R)-1-phenylpropyl)amino)-quinoline-3-carbonitrile]	358	20	
Cn1cccc([C@H](Nc2cc(Cl)c3ncc(C#N)c(NCC(C)(C)C)c3c2)c2cn(C3(C(F)(F)F)CC3)nn2)c1=O [Example 936, (S)-8-chloro-6-(((1-methyl-2-oxo-1,2-dihydropyridin-3-yl)(1-(1-(trifluoromethyl)cyclopropyl)-1H-1,2,3-triazol-4-yl)methyl)amino)-4-(neopentylamino)quinoline-3-carbonitrile]			EC50 (TNFα; [3]): 287 nM; IC50 (Human Cot; [4]): 18 nM
Cn1ccc2c([C@H](Nc3cc(Cl)c4ncc(C#N)c(NCC(C)(C)CO)c4c3)c3cn(C45CC(C4)C5)nn3)cccc2c1=O [Example 768, (S)-6-(((1-(bicyclo[1.1.1]pentan-1-yl)-1H-1,2,3-triazol-4-yl)(2-methyl-1-oxo-1,2-dihydroisoquinolin-5-yl)methyl)amino)-8-chloro-4-((3-hydroxy-2,2-dimethylpropyl)amino)quinoline-3-carbonitrile]	86	6	
[2H]C(Nc1cc(Cl)c2ncc(C#N)c(N[C@@H](CCC#N)c3ccccc3)c2c1)(c1ccc(F)nc1)c1cn(C2CC2)nn1 (stereo partly drawn) [Example 88, 8-chloro-4-(((S)-3-cyano-1-phenylpropyl)amino)-6-(((1-cyclopropyl-1H-1,2,3-triazol-4-yl)(6-fluoropyridin-3-yl)methyl-d)amino)quinoline-3-carbonitrile]	> 1000	1160	
N#Cc1cnc2c(Cl)cc(N[C@@H](c3cncc(Cl)c3)c3cn(C4CC4)nn3)cc2c1Nc1cnc(F)c(F)c1 [Example 146, (S)-8-chloro-6-(((5-chloropyridin-3-yl)(1-cyclopropyl-1H-1,2,3-triazol-4-yl)methyl)amino)-4-((5,6-difluoropyridin-3-yl)amino)-quinoline-3-carbonitrile]	370	10	
Cn1ccc2c([C@H](Nc3cc(Cl)c4ncc(C#N)c(NCC(C)(C)C(F)(F)F)c4c3)c3cn(C4(C)CC4)nn3)cccc2c1=O [Example 781, (S)-8-chloro-6-(((2-methyl-1-oxo-1,2-dihydroiso-quinolin-5-yl)(1-(1-methylcyclopropyl)-1H-1,2,3-triazol-4-yl)methyl)amino)-4-((3,3,3-trifluoro-2,2-dimethylpropyl)amino)quinoline-3-carbonitrile]			EC50 (TNFα; read-out: EC50 TNF, LPS-stimulated human monocytes, TNFα): 22 nM; IC50 (Human Cot; read-out: IC50 HTRF, Cot HTRF (TR-FRET) biochemical assay): 2 nM
Cc1nc(F)ccc1[C@H](Nc1cc(Cl)c2ncc(C#N)c(NCC(C)(C)C)c2c1)c1cn(C2(C(=O)N3CCOCC3)CC2)nn1 [Example 555, (S)-8-chloro-6-(((6-fluoro-2-methylpyridin-3-yl)(1-(1-(morpholine-4-carbonyl)cyclopropyl)-1H-1,2,3-triazol-4-yl)methyl)amino)-4-(neopentylamino)quinoline-3-carbonitrile]	208	7	
Cc1ncsc1[C@H](Nc1cc(Cl)c2ncc(C#N)c(Nc3ccc(Cl)c(Cl)c3F)c2c1)c1c[nH]nn1 [Example 234, (R)-8-chloro-4-((3,4-dichloro-2-fluorophenyl)amino)-6-(((4-methylthiazol-5-yl)(1H-1,2,3-triazol-4-yl)methyl)amino)quinoline-3-carbonitrile]	504	21	
Cc1nc(F)ccc1[C@H](Nc1cc(C#N)c2ncc(C#N)c(NCC(C)(C)C)c2c1)c1cn(C2(C#N)CCC2)nn1 [Example 491, (S)-6-(((1-(1-cyanocyclobutyl)-1H-1,2,3-triazol-4-yl)(6-fluoro-2-methylpyridin-3-yl)methyl)amino)-4-(neopentylamino)-quinoline-3,8-dicarbonitrile]	40	3	
CC(C)(C)CNc1c(C#N)cnc2c(C#N)cc(N[C@@H](c3ccc4nccn4c3)c3cn(C4(C(F)(F)F)CC4)nn3)cc12 [Example 822, (S)-6-((imidazo[1,2-a]pyridin-6-yl(1-(1-(trifluoromethyl)cyclopropyl)-1H-1,2,3-triazol-4-yl)methyl)amino)-4-(neopentylamino)quinoline-3,8-dicarbonitrile]			EC50 (TNFα; [3]): 687 nM; IC50 (Human Cot; [4]): 10 nM
Cn1nccc1[C@H](Nc1cc(Cl)c2ncc(C#N)c(NCC(C)(C)C)c2c1)c1cn(C2(C(F)F)CC2)nn1 [Example 665, (S)-8-chloro-6-(((1-(1-(difluoromethyl)cyclopropyl)-1H-1,2,3-triazol-4-yl)(1-methyl-1H-pyrazol-5-yl)methyl)amino)-4-(neopentylamino)quinoline-3-carbonitrile]	198	6	
CCC1(n2cc([C@@H](Nc3cc(Cl)c4ncc(C#N)c(NCC(C)(C)C)c4c3)c3cccc4c(=O)n(C)ccc34)nn2)CC1 [Example 756, (S)-8-chloro-6-(((1-(1-ethylcyclopropyl)-1H-1,2,3-triazol-4-yl)(2-methyl-1-oxo-1,2-dihydroisoquinolin-5-yl)methyl)amino)-4-(neopentylamino)quinoline-3-carbonitrile]	26	3	
CC[C@@H](Nc1c(C#N)cnc2c(Cl)cc(N[C@@H](c3cccnc3)c3cn(CC#N)nn3)cc12)c1ccccc1 [Example 175, 8-chloro-6-(((S)-(1-(cyanomethyl)-1H-1,2,3-triazol-4-yl)(pyridin-3-yl)methyl)amino)-4-(((R)-1-phenylpropyl)amino)quinoline-3-carbonitrile]	73	3	
Cc1nc(F)ccc1[C@H](Nc1cc(Cl)c2ncc(C#N)c(NCC(C)(C)C)c2c1)c1cn(C2(C(=O)O)CC2)nn1 [Example 517, (S)-1-(4-(((8-chloro-3-cyano-4-(neopentylamino)quinolin-6-yl)amino)(6-fluoro-2-methylpyridin-3-yl)methyl)-1H-1,2,3-triazol-1-yl)cyclopropane-1-carboxylic acid]	1000	3	
